Drawing on ChEMBL document CHEMBL5113475, “10-Alkoxy-anthracenyl-isoxazole analogs have sub-micromolar activity against a Glioblastoma multiforme cell line” (Bioorg Med Chem, 2022), this text covers IC50 and Activity for seven compounds.

The term pIC50 denotes the negative decadic logarithm of the IC50, by convention in mol/L.

The test system of one assay is SNB-19. Put plainly: Antitumor activity against human SNB-19 cells assessed as cell growth inhibition measured after 24 hrs by MTT colorimetric assay. The format is functional, cell-based. The settings on record: SNB-19, 24 h. On the technique in general: Tetrazolium dyes change colour on reduction, which living cells bring about.
For the next assay, the system named is Quadruplex DNA. Put plainly: Stabilization of c-Myc G-quadruplex DNA (unknown origin ) assessed as increase in melting temperature at 2 equivalent by CD spectroscopy. It is filed as nucleic-acid assay. As to conditions: dose 2.0 equiv.

Molecules are shown by their SMILES. pIC50: −log10 of the molar value. Calls of active or inactive are those of the source. No cut-off for these calls is given here.

For the compound `COc1ccc2c(OC)c3ccccc3c(-c3noc(C)c3C(=O)Nc3cc(C(=O)N(CCCN(C)C)CCCN(C)C)n(C)c3)c2c1`, in the assay with SNB-19, the negative logarithm of the IC50 (pIC50) is 5.32.

Consider `Cc1onc(-c2c3ccccc3c(Oc3ccc(-c4ccccc4)cc3)c3ccccc23)c1C(=O)Nc1cc(C(=O)N(CCCN(C)C)CCCN(C)C)n(C)c1`, for which, in the assay on SNB-19, the pIC50 is 6.24. Also, the outcome in the assay with Quadruplex DNA was Active.

For the compound `COc1ccc2c(OC)c3ccccc3c(-c3noc(C)c3C(=O)Nc3cc(C(=O)N(CCCN(C)C)CCCN(C)C)n(C)c3)c2c1Cl`, in the assay with SNB-19, the pIC50 was 4.90.

For `COc1c2ccccc2c(-c2noc(C)c2C(=O)Nc2cc(C(=O)N(CCCN(C)C)CCCN(C)C)n(C)c2)c2ccccc12`, the negative logarithm of the IC50 (pIC50) with SNB-19 was 5.11.

With `Cc1onc(-c2c3ccccc3c(Oc3cccc4ccccc34)c3ccccc23)c1C(=O)Nc1cc(C(=O)N(CCCN(C)C)CCCN(C)C)n(C)c1`, in the assay with SNB-19, the pIC50 was 5.97.

`Cc1onc(-c2c3ccccc3c(Oc3ccccc3)c3ccccc23)c1C(=O)Nc1cc(C(=O)N(CCCN(C)C)CCCN(C)C)n(C)c1`: the pIC50 in the assay with SNB-19 was 5.99.

Take `Cc1onc(-c2c3ccccc3c(Oc3ccc4ccccc4c3)c3ccccc23)c1C(=O)Nc1cc(C(=O)N(CCCN(C)C)CCCN(C)C)n(C)c1`: the pIC50 in the assay on SNB-19 was 5.51.
